In patent US11427549B2, “Pyrimidinyloxy benzo-fused compounds as herbicides” (FMC Corporation, priority 2017, dated 2022):

How the values were obtained:
rice (Oryza sativa) = experiment: Test B flooded paddy test, rice; details: Oryza sativa, read-out: Plant response rating, Rice (0 to 100 scale, 0 is no effect, 100 is complete control)
[1] = tested on: barnyardgrass (Echinochloa crus-galli); experiment: Test A postemergence, barnyardgrass; assay type: in vivo; details: Echinochloa crus-galli, post-emergence, 240 h, 0 to 100 scale (0 no effect, 100 complete control), read-out: Plant response rating, Barnyardgrass
[2] = tested on: ragweed (common ragweed, Ambrosia elatior); experiment: Test A postemergence, ragweed; assay type: in vivo; details: Ambrosia artemisiifolia, post-emergence, 240 h, 0 to 100 scale (0 no effect, 100 complete control), read-out: Plant response rating, Ragweed
[3] = tested on: pigweed (Amaranthus retroflexus); experiment: Test A postemergence, pigweed; assay type: in vivo; details: Amaranthus retroflexus, post-emergence, 240 h, 0 to 100 scale (0 no effect, 100 complete control), read-out: Plant response rating, Pigweed
[4] = tested on: ryegrass, Italian (Italian ryegrass, Lolium multiflorum); experiment: Test A postemergence, ryegrass, Italian; assay type: in vivo; details: Lolium multiflorum, post-emergence, 240 h, 0 to 100 scale (0 no effect, 100 complete control), read-out: Plant response rating, Ryegrass, Italian
[5] = tested on: pigweed (Amaranthus retroflexus); experiment: Test A preemergence, pigweed; assay type: in vivo; details: Amaranthus retroflexus, pre-emergence, 240 h, 0 to 100 scale (0 no effect, 100 complete control), read-out: Plant response rating, Pigweed
kochia (Kochia scoparia) [6] = experiment: Test A postemergence, kochia; assay type: in vivo; details: Bassia scoparia, post-emergence, 240 h, 0 to 100 scale (0 no effect, 100 complete control), read-out: Plant response rating, Kochia
corn (Zea mays) = experiment: Test A postemergence, corn; assay type: in vivo; details: Zea mays, post-emergence, 240 h, 0 to 100 scale (0 no effect, 100 complete control)
[7] = tested on: galium (catchweed bedstraw, Galium aparine); experiment: Test A postemergence, galium; assay type: in vivo; details: Galium, post-emergence, 240 h, 0 to 100 scale (0 no effect, 100 complete control), read-out: Plant response rating, Galium
[8] = tested on: foxtail, green (green foxtail, Setaria viridis); experiment: Test A postemergence, foxtail, green; assay type: in vivo; details: Setaria, post-emergence, 240 h, 0 to 100 scale (0 no effect, 100 complete control), read-out: Plant response rating, Foxtail, Green
[9] = tested on: blackgrass (Alopecurus myosuroides); experiment: Test A postemergence, blackgrass; assay type: in vivo; details: Alopecurus myosuroides, post-emergence, 240 h, 0 to 100 scale (0 no effect, 100 complete control), read-out: Plant response rating, Blackgrass
[10] = tested on: ducksalad (Heteranthera limosa); experiment: Test B flooded paddy test, ducksalad; details: Heteranthera limosa, read-out: Plant response rating, Ducksalad (0 to 100 scale, 0 is no effect, 100 is complete control)
kochia (Kochia scoparia) [11] = experiment: Test A preemergence, kochia; assay type: in vivo; details: Bassia scoparia, pre-emergence, 240 h, 0 to 100 scale (0 no effect, 100 complete control), read-out: Plant response rating, Kochia
[12] = tested on: barnyardgrass (Echinochloa crus-galli); experiment: Test B flooded paddy test, barnyardgrass; details: Echinochloa crus-galli, read-out: Plant response rating, Barnyardgrass (0 to 100 scale, 0 is no effect, 100 is complete control)
[13] = tested on: wheat (Triticum aestivum); experiment: Test A postemergence, wheat; assay type: in vivo; details: Triticum aestivum, post-emergence, 240 h, 0 to 100 scale (0 no effect, 100 complete control), read-out: Plant response rating, Wheat
[14] = tested on: ryegrass, Italian (Italian ryegrass, Lolium multiflorum); experiment: Test A preemergence, ryegrass, Italian; assay type: in vivo; details: Lolium multiflorum, pre-emergence, 240 h, 0 to 100 scale (0 no effect, 100 complete control), read-out: Plant response rating, Ryegrass, Italian
[15] = tested on: ragweed (common ragweed, Ambrosia elatior); experiment: Test A preemergence, ragweed; assay type: in vivo; details: Ambrosia artemisiifolia, pre-emergence, 240 h, 0 to 100 scale (0 no effect, 100 complete control), read-out: Plant response rating, Ragweed
[16] = tested on: barnyardgrass (Echinochloa crus-galli); experiment: Test A preemergence, barnyardgrass; assay type: in vivo; details: Echinochloa crus-galli, pre-emergence, 240 h, 0 to 100 scale (0 no effect, 100 complete control), read-out: Plant response rating, Barnyardgrass

CCCC1OC(=O)Cc2cccc(Oc3ncc(Cl)cn3)c21 (stereo not drawn) [Compound 35, 8-[(5-Chloro-2-pyrimidinyl)oxy]-1,4-dihydro-1-propyl-3H-2-benzopyran-3-one]
50%: pest or weed control at 125 g/ha ([3]; 125 g ai/ha) | pest or weed control at 125 g/ha (kochia (Kochia scoparia) [6]; 125 g ai/ha)
20%: pest or weed control at 31 g/ha (kochia (Kochia scoparia) [6]; 31 g ai/ha)
0%: plant injury at 250 g/ha (rice (Oryza sativa)) | pest or weed control at 31 g/ha ([1]; 31 g ai/ha) | pest or weed control at 125 g/ha ([1]; 125 g ai/ha) | pest or weed control at 31 g/ha ([2]; 31 g ai/ha) | pest or weed control at 31 g/ha ([4]; 31 g ai/ha) | pest or weed control at 125 g/ha ([4]; 125 g ai/ha) | pest or weed control at 31 g/ha ([5]; 31 g ai/ha) | Corn plant response rating (crop injury, 0 = no effect, 100 = complete kill) at 31 g/ha (corn (Zea mays); 31 g ai/ha) | Corn plant response rating (crop injury, 0 = no effect, 100 = complete kill) at 125 g/ha (corn (Zea mays); 125 g ai/ha) | pest or weed control at 250 g/ha [10] | pest or weed control at 31 g/ha (kochia (Kochia scoparia) [11]; 31 g ai/ha) | pest or weed control at 125 g/ha (kochia (Kochia scoparia) [11]; 125 g ai/ha) | pest or weed control at 250 g/ha [12] | plant injury at 31 g/ha ([13]; 31 g ai/ha) | plant injury at 125 g/ha ([13]; 125 g ai/ha) | pest or weed control at 31 g/ha ([14]; 31 g ai/ha) | pest or weed control at 125 g/ha ([14]; 125 g ai/ha) | pest or weed control at 31 g/ha ([15]; 31 g ai/ha) | pest or weed control at 125 g/ha ([15]; 125 g ai/ha) | pest or weed control at 31 g/ha ([16]; 31 g ai/ha)
10%: pest or weed control at 125 g/ha ([2]; 125 g ai/ha) | pest or weed control at 125 g/ha ([5]; 125 g ai/ha) | pest or weed control at 31 g/ha ([7]; 31 g ai/ha) | pest or weed control at 31 g/ha ([8]; 31 g ai/ha) | pest or weed control at 125 g/ha ([8]; 125 g ai/ha) | pest or weed control at 31 g/ha ([9]; 31 g ai/ha) | pest or weed control at 125 g/ha ([9]; 125 g ai/ha) | pest or weed control at 125 g/ha ([16]; 125 g ai/ha)
30%: pest or weed control at 31 g/ha ([3]; 31 g ai/ha) | pest or weed control at 125 g/ha ([7]; 125 g ai/ha)
